Values after ≈ are worked out from the molar mass of the structure shown. Where two headings read alike, the source gives them in different places.
Key:
Assay in all cases: Broth microdilution MIC, European bacteraemia isolates 2010-2012
[1] = test system: E. faecium; type: cell-based, Enterococcus faecium; conditions: for % Resistant, CLSI / % Susceptible, CLSI: CLSI M100-S23 breakpoints; for MIC90 / MIC50: Enterococcus faecium; for MIC90 / MIC50 / MIC 50% / MIC Range / MIC 90%: Table 2; for MIC90: read-out: MIC 90%; for MIC50: read-out: MIC 50%; for % Resistant, EUCAST / % Susceptible, EUCAST: EUCAST 2013 breakpoints
Description: (§1) A total of 2,904 clinical strains responsible for documented bacteremia among unique hospitalized patients in 38 hospitals in 11 European Union countries. Israel, Russia, Turkey and Ukraine were included in this study (2010-2012). Isolates were submitted to a central monitoring laboratory (JMI Laboratories, North Liberty. Iowa. USA), following previously established protocols. Bacterial species identification was performed by using an automated system (Vitek®2; bioMèrieux, Hazelwood, Mo., USA) or conventional biochemical algorithms, as required.
(§2) Isolates were tested for susceptibility by broth microdilution methods following the Clinical and Laboratory Standards Institute (CLSI; M07-A9, 2012) document. Susceptibility testing was performed in cation-adjusted Mueller-Hinton broth (CA-MHB) using dry-form panels manufactured by Thermo Fisher Scientific, formerly TREK Diagnostics Systems/Sensititre (Cleveland. Ohio, USA). These panels provide results equivalent to the CLSI-approved broth microdilution method supplemented with 0.002% polysorbate-80.
(§3) Quality assurance was performed by concurrent testing of CLSI-recommended (M100-S23, 2013) strains: E. faecalis ATCC 29212 and S. aureus ATCC 29213. Interpretation of comparator MIC results was in accordance with published CLSI (M100-S23) and European Committee on Antimicrobial Susceptibility Testing (EUCAST, 2013) criteria.

[2] = test system: Coagulase-negative staphylococci; type: cell-based, coagulase-negative staphylococci (CoNS); conditions: Coagulase-negative staphylococci (646); for MIC50: read-out: MIC 50%; for MIC90: read-out: MIC 90%
Description: as §1, §2, §3

[3] = test system: S. aureus; type: cell-based; conditions: S. aureus Methicillin-resistant (1,708); for % Resistant, CLSI / % Susceptible, CLSI: CLSI M100-S23 breakpoints; for % Resistant, EUCAST / % Susceptible, EUCAST: EUCAST 2013 breakpoints; for MIC50 / MIC90: Staphylococcus aureus; for MIC50: read-out: MIC 50%; for MIC90: read-out: MIC 90%
Description: as §1, §2, §3

[4] = test system: E. faecalis; type: cell-based, Enterococcus faecalis; conditions: for % Resistant, CLSI / % Susceptible, CLSI: CLSI M100-S23 breakpoints; for MIC50 / MIC90: Enterococcus faecalis; for MIC50: read-out: MIC 50%; for MIC90: read-out: MIC 90%; for % Resistant, EUCAST / % Susceptible, EUCAST: EUCAST 2013 breakpoints; for % susceptible: E. faecalis strains, criteria not stated
Description: as §1, §2, §3

[5] = E. faecium Vancomycin-resistant (VanA-phenotype) (153)
[6] = E. faecium Vancomycin-susceptible (257)

CN(C)[C@@H]1C(O)=C(C(N)=O)C(=O)[C@@]2(O)C(O)=C3C(=O)c4c(O)cccc4[C@@](C)(O)[C@H]3C[C@@H]12 [Tetracycline]
% Resistant, CLSI [1, 5]: 41.5%
% Susceptible, CLSI [1, 5]: 58.5%
% Resistant, CLSI [1, 6]: 43.2%
% Susceptible, CLSI [1, 6]: 56.0%
MIC90 [1, 5]: > 8 µg/mL
MIC50 [1, 6]: 0.5 µg/mL (≈ 1.13 µM)
MIC90 [1, 6]: > 8 µg/mL
MIC 50% [1, 5]: 0.5 mg/L (≈ 1.13 µM)
% Resistant, CLSI ([2]; CLSI M100-S23 breakpoints): 15.2%
MIC50 ([2]; Table 2): 1 µg/mL (≈ 2.25 µM)
MIC90 ([2]; Table 2): > 8 µg/mL
% Resistant, CLSI [3]: 14.2%
% Susceptible, CLSI [3]: 84.9%
% Resistant, EUCAST [3]: 15.1%
% Susceptible, EUCAST [3]: 84.4%
MIC50 ([3]; Table 2): ≤ 0.25 µg/mL
MIC90 ([3]; Table 2): > 8 µg/mL
% Resistant, CLSI ([4]; E. faecalis (445)): 73.5%
% Susceptible, CLSI ([4]; E. faecalis (445)): 26.5%
MIC50 ([4]; Table 2, E. faecalis (445)): > 8 µg/mL
MIC90 ([4]; Table 2, E. faecalis (445)): > 8 µg/mL

CC[C@H]1OC(=O)[C@H](C)[C@@H](O[C@H]2C[C@@](C)(OC)[C@@H](O)[C@H](C)O2)[C@H](C)[C@@H](O[C@@H]2O[C@H](C)C[C@H](N(C)C)[C@H]2O)[C@](C)(O)C[C@@H](C)C(=O)[C@H](C)[C@@H](O)[C@]1(C)O [Erythromycin]
% Resistant, CLSI [1, 5]: 98.1%
% Susceptible, CLSI [1, 5]: 0.0%
% Resistant, CLSI [1, 6]: 91.4%
% Susceptible, CLSI [1, 6]: 3.5%
MIC90 [1, 5]: > 4 µg/mL
MIC50 [1, 6]: > 4 µg/mL
MIC90 [1, 6]: > 4 µg/mL
MIC 50% [1, 5]: >4 mg/L
% Resistant, CLSI ([2]; CLSI M100-S23 breakpoints): 65.1%
MIC50 ([2]; Table 2): > 4 µg/mL
MIC90 ([2]; Table 2): > 4 µg/mL
% Resistant, CLSI [3]: 68.0%
% Susceptible, CLSI [3]: 29.6%
% Resistant, EUCAST [3]: 69.1%
% Susceptible, EUCAST [3]: 29.8%
MIC50 ([3]; Table 2): > 4 µg/mL
MIC90 ([3]; Table 2): > 4 µg/mL
% Resistant, CLSI ([4]; E. faecalis (445)): 54.8%
% Susceptible, CLSI ([4]; E. faecalis (445)): 8.1%
MIC50 ([4]; Table 2, E. faecalis (445)): > 4 µg/mL
MIC90 ([4]; Table 2, E. faecalis (445)): > 4 µg/mL

CCC[C@@H]1C[C@@H](C(=O)N[C@@H]([C@H]2O[C@H](SC)[C@H](O)[C@@H](O)[C@H]2O)[C@H](C)Cl)N(C)C1 [Clindamycin]
% Resistant, CLSI ([2]; CLSI M100-S23 breakpoints): 26.0%
MIC50 ([2]; Table 2): ≤ 0.25 µg/mL
MIC90 ([2]; Table 2): > 2 µg/mL
% Resistant, CLSI [3]: 40.3%
% Susceptible, CLSI [3]: 59.1%
% Resistant, EUCAST [3]: 40.9%
% Susceptible, EUCAST [3]: 58.9%
MIC50 ([3]; Table 2): ≤ 0.25 µg/mL
MIC90 ([3]; Table 2): > 2 µg/mL

Cc1onc(-c2ccccc2)c1C(=O)N[C@@H]1C(=O)N2[C@@H]1SC(C)(C)[C@@H]2C(=O)O [Oxacillin]
% Resistant, CLSI ([2]; CLSI M100-S23 breakpoints): 78.8%
MIC50 ([2]; Table 2): > 2 µg/mL
MIC90 ([2]; Table 2): > 2 µg/mL

CC1(C)S[C@@H]2[C@H](NC(=O)[C@H](N)c3ccccc3)C(=O)N2[C@H]1C(=O)O [Ampicillin]
% Resistant, CLSI [1, 5]: 100.0%
% Susceptible, CLSI [1, 5]: 0.0%
% Resistant, EUCAST [1, 5]: 100.0%
% Susceptible, EUCAST [1, 5]: 0.0%
% Resistant, CLSI [1, 6]: 94.2%
% Susceptible, CLSI [1, 6]: 5.8%
% Resistant, EUCAST [1, 6]: 94.2%
% Susceptible, EUCAST [1, 6]: 5.4%
MIC90 [1, 5]: > 8 µg/mL
MIC50 [1, 6]: > 8 µg/mL
MIC90 [1, 6]: > 8 µg/mL
MIC 50% [1, 5]: >8 mg/L
MIC Range [1, 5]: >8 mg/L
% Resistant, CLSI ([4]; E. faecalis (445)): 0.0%
% Susceptible, CLSI ([4]; E. faecalis (445)): 100.0%
% Resistant, EUCAST ([4]; E. faecalis (445)): 0.0%
% Susceptible, EUCAST ([4]; E. faecalis (445)): 99.6%
% susceptible [4]: 99.6%
MIC50 ([4]; Table 2, E. faecalis (445)): ≤ 1 µg/mL
MIC90 ([4]; Table 2, E. faecalis (445)): 2 µg/mL (≈ 5.72 µM)
MIC 50% ([4]; Table 2, E. faecalis (445)): ≦1 mg/L
MIC Range ([4]; Table 2, E. faecalis (445), includes four VanA-phenotype strains): ≦1-8 mg/L

Teicoplanin
% Resistant, CLSI [1, 5]: 96.2%
% Susceptible, CLSI [1, 5]: 0.0%
% Resistant, EUCAST [1, 5]: 100.0%
% Susceptible, EUCAST [1, 5]: 0.0%
% Resistant, CLSI [1, 6]: 0.0%
% Susceptible, CLSI [1, 6]: 100.0%
% Resistant, EUCAST [1, 6]: 0.4%
% Susceptible, EUCAST [1, 6]: 99.6%
MIC 50% [1, 5]: >8 mg/L
MIC 90% [1, 5]: >8 mg/L
MIC Range [1, 5]: >8 mg/L
MIC 50% [1, 6]: ≦2 mg/L
MIC 90% [1, 6]: ≦2 mg/L
MIC Range [1, 6]: ≦2-4 mg/L
% Resistant, CLSI ([2]; CLSI M100-S23 breakpoints): 0.8%
% Susceptible, CLSI ([2]; CLSI M100-S23 breakpoints): 97.7%
% Resistant, EUCAST ([2]; EUCAST 2013 breakpoints): 11.1%
% Susceptible, EUCAST ([2]; EUCAST 2013 breakpoints): 88.9%
MIC 50% ([2]; Table 2): ≦2 mg/L
MIC 90% ([2]; Table 2): 8 mg/L
% Resistant, CLSI [3]: 0.0%
% Susceptible, CLSI [3]: 100.0%
% Resistant, EUCAST [3]: 0.0%
% Susceptible, EUCAST [3]: 100.0%
MIC 50% ([3]; Table 2): ≦2 mg/L
MIC 90% ([3]; Table 2): ≦2 mg/L
MIC Range ([3]; Table 2): ≦2 mg/L
% Resistant, CLSI ([4]; E. faecalis (445)): 0.9%
% Susceptible, CLSI ([4]; E. faecalis (445)): 99.1%
% Resistant, EUCAST ([4]; E. faecalis (445)): 0.9%
% Susceptible, EUCAST ([4]; E. faecalis (445)): 99.1%
% susceptible [4]: 99.1%
MIC 50% ([4]; Table 2, E. faecalis (445)): ≦2 mg/L
MIC 90% ([4]; Table 2, E. faecalis (445)): ≦2 mg/L

C[C@H]1COc2c(N3CCN(C)CC3)c(F)cc3c(=O)c(C(=O)O)cn1c23 [Levofloxacin]
% Resistant, CLSI [1, 5]: 100.0%
% Susceptible, CLSI [1, 5]: 0.0%
% Resistant, CLSI [1, 6]: 89.1%
% Susceptible, CLSI [1, 6]: 5.8%
MIC90 [1, 5]: > 4 µg/mL
MIC50 [1, 6]: > 4 µg/mL
MIC90 [1, 6]: > 4 µg/mL
MIC 50% [1, 5]: >4 mg/L
MIC Range [1, 5]: >4 mg/L
% Resistant, CLSI ([2]; CLSI M100-S23 breakpoints): 56.2%
MIC50 ([2]; Table 2): 4 µg/mL (≈ 11.1 µM)
MIC90 ([2]; Table 2): > 4 µg/mL
% Resistant, CLSI [3]: 90.3%
% Susceptible, CLSI [3]: 8.6%
% Resistant, EUCAST [3]: 90.3%
% Susceptible, EUCAST [3]: 8.6%
MIC50 ([3]; Table 2): > 4 µg/mL
MIC90 ([3]; Table 2): > 4 µg/mL
% Resistant, CLSI ([4]; E. faecalis (445)): 35.3%
% Susceptible, CLSI ([4]; E. faecalis (445)): 64.3%
MIC50 ([4]; Table 2, E. faecalis (445)): 1 µg/mL (≈ 2.77 µM)
MIC90 ([4]; Table 2, E. faecalis (445)): > 4 µg/mL
